This is an account of results in patent US20240132431A1, “METHOD FOR ALKYLATING ACIDIC FUNCTIONAL GROUP” (Chugai Seiyaku Kabushiki Kaisha, priority 2021, published 2024).

This assay has as its target T1, Bcl-2 protein (Recombinant Human Bcl-2 Protein) (Homo sapiens, UniProt P10415).
T1 construct: purchased Novus NBP2-34889
Briefly: Binding evaluation of mixture library compounds to Bcl-2 using AS-MS (affinity selection mass spectrometry). The following applies: AS-MS on the mixture of 1200 library compounds, ASMS Ratio(%)=(A−C)/B×100; for ASMS ratio (%) n = 1: replicate n = 1; for ASMS ratio (%) n = 2: replicate n = 2. The procedure, abridged: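 Affinity selection MS: Bcl-2 20 μM + 1200-cpd mixture, […]/cpd, Tris pH 7.4 buffer w/ Tween-20, DTT; 1 h 23° C dark; P-2 spin SEC; MeCN/MeOH extraction; RP LC/MS. ASMS Ratio(%) = (A−C)/B×100.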

T1 sequence (P10415 whole entry): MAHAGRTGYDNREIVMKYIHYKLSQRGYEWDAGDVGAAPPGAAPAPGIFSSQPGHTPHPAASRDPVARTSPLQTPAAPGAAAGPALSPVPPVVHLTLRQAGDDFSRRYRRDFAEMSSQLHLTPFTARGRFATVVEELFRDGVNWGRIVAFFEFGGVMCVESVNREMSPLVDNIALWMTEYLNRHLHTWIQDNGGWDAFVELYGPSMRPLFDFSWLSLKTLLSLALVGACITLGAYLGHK

Turning to `CCOc1cncc(-c2ccc(C(=O)N3CCN(c4ccc(C(=O)N(CC)CC)nn4)CC3)cc2C)c1` [B4J004-01, 6-[4-[4-(5-Ethoxypyridin-3-yl)-3-methylbenzoyl]piperazin-1-yl]-N,N-diethylpyridazine-3-carboxamide], the “ASMS ratio (%) n = 1” value was −2.2% and the “ASMS ratio (%) n = 2” value was 0.4%.
For `CCOc1cccc(-c2ccc(C(=O)N3CCN(c4ccc(C(=O)N(CC)CC)nn4)CC3)cc2F)c1` [B4J005-01, 6-[4-[4-(3-Ethoxyphenyl)-3-fluorobenzoyl]piperazin-1-yl]-N,N-diethylpyridazine-3-carboxamide], in that order: −0.4% and 2.1%.
`CCOc1cccc(C#Cc2ccccc2C(=O)N2CCN(c3ccc(C(=O)N(CC)CC)nn3)CC2)c1` [B4J007-01, 6-[4-[2-[2-(3-Ethoxyphenyl)ethynyl]benzoyl]piperazin-1-yl]-N,N-diethylpyridazine-3-carboxamide]: the “ASMS ratio (%) n = 1” value was −1.0% and the “ASMS ratio (%) n = 2” value came to 1.5%.
On the same counts, the results for `CCOc1cncc(C#Cc2ccccc2C(=O)N2CCN(c3ccc(C(=O)N(CC)CC)nn3)CC2)c1` [B4J008-01, 6-[4-[2-[2-(5-Ethoxypyridin-3-yl)ethynyl]benzoyl]piperazin-1-yl]-N,N-diethylpyridazine-3-carboxamide] are 0.0% and 0.0%.
As for `CCOc1cccc(C#Cc2cncc(C(=O)N3CCN(c4ccc(C(=O)N(CC)CC)nn4)CC3)c2)c1` [B4J009-01, 6-[4-[5-[2-(3-Ethoxyphenyl)ethynyl]pyridine-3-carbonyl]piperazin-1-yl]-N,N-diethylpyridazine-3-carboxamide], the “ASMS ratio (%) n = 1” value is 0.0% and the “ASMS ratio (%) n = 2” value is listed as 0.0%.
Regarding `CCOc1cncc(C#Cc2cncc(C(=O)N3CCN(c4ccc(C(=O)N(CC)CC)nn4)CC3)c2)c1` [B4J010-01, 6-[4-[5-[2-(5-Ethoxypyridin-3-yl)ethynyl]pyridine-3-carbonyl]piperazin-1-yl]-N,N-diethylpyridazine-3-carboxamide], the “ASMS ratio (%) n = 1” value is on record as 0.0% and the “ASMS ratio (%) n = 2” value worked out at 2.3%.
Regarding `CCOc1cccc(-c2ccccc2CCC(=O)N2CCN(c3ccc(C(=O)N(CC)CC)nn3)CC2)c1` [B4J011-01, 6-[4-[3-[2-(3-Ethoxyphenyl)phenyl]propanoyl]piperazin-1-yl]-N,N-diethylpyridazine-3-carboxamide], the “ASMS ratio (%) n = 1” value is listed as −0.1% and the “ASMS ratio (%) n = 2” value is −0.9%.
On the same counts, the results for `CCOc1cncc(-c2ccccc2CCC(=O)N2CCN(c3ccc(C(=O)N(CC)CC)nn3)CC2)c1` [B4J012-01, 6-[4-[3-[2-(5-Ethoxypyridin-3-yl)phenyl]propanoyl]piperazin-1-yl]-N,N-diethylpyridazine-3-carboxamide] are −1.1% and −0.8%.
For `CCOc1cccc(-c2ccc(C(=O)N3CCN(c4ccc(C(=O)N(CC)CC)nn4)CC3)c3ccccc23)c1` [B4J013-01, 6-[4-[4-(3-Ethoxyphenyl)naphthalene-1-carbonyl]piperazin-1-yl]-N,N-diethylpyridazine-3-carboxamide], the “ASMS ratio (%) n = 1” value is 2.0% and the “ASMS ratio (%) n = 2” value came out at 3.7%.
On the same counts, the results for `CCOc1cncc(-c2ccc(C(=O)N3CCN(c4ccc(C(=O)N(CC)CC)nn4)CC3)c3ccccc23)c1` [B4J014-01, 6-[4-[4-(5-Ethoxypyridin-3-yl)naphthalene-1-carbonyl]piperazin-1-yl]-N,N-diethylpyridazine-3-carboxamide] are 0.0% and −0.8%.
On the same counts, the results for `CCOc1cccc(-c2cc(C(=O)N3CCN(c4ccc(C(=O)N(CC)CC)nn4)CC3)cc(C(C)(C)C)c2)c1` [B4J015-01, 6-[4-[3-tert-Butyl-5-(3-ethoxyphenyl)benzoyl]piperazin-1-yl]-N,N-diethylpyridazine-3-carboxamide] are 0.0% and 0.0%.
For the molecule `CCOc1cncc(-c2cc(C(=O)N3CCN(c4ccc(C(=O)N(CC)CC)nn4)CC3)cc(C(C)(C)C)c2)c1` [B4J016-01, 6-[4-[3-tert-Butyl-5-(5-ethoxypyridin-3-yl)benzoyl]piperazin-1-yl]-N,N-diethylpyridazine-3-carboxamide], the “ASMS ratio (%) n = 1” value came out at 0.0% and the “ASMS ratio (%) n = 2” value was determined as 0.9%.
On the same counts, the results for `CCOc1cccc(-c2cc(C(=O)N3CCN(c4ccc(C(=O)N(CC)CC)nn4)CC3)cc(C(F)(F)F)c2)c1` [B4J017-01, 6-[4-[3-(3-Ethoxyphenyl)-5-(trifluoromethyl)benzoyl]piperazin-1-yl]-N,N-diethylpyridazine-3-carboxamide] are −0.3% and −0.5%.
With `CCOc1cncc(-c2cc(C(=O)N3CCN(c4ccc(C(=O)N(CC)CC)nn4)CC3)cc(C(F)(F)F)c2)c1` [B4J018-01, 6-[4-[3-(5-Ethoxypyridin-3-yl)-5-(trifluoromethyl)benzoyl]piperazin-1-yl]-N,N-diethylpyridazine-3-carboxamide], the “ASMS ratio (%) n = 1” value is recorded as −0.5% and the “ASMS ratio (%) n = 2” value is −1.7%.
On the same counts, the results for `CCOc1cccc(C#Cc2cc(C(=O)N3CCN(c4ccc(C(=O)N(CC)CC)nn4)CC3)cc(C(F)(F)F)c2)c1` [B4J019-01, 6-[4-[3-[2-(3-Ethoxyphenyl)ethynyl]-5-(trifluoromethyl)benzoyl]piperazin-1-yl]-N,N-diethylpyridazine-3-carboxamide] are −0.5% and −2.1%.
For `CCOc1cncc(C#Cc2cc(C(=O)N3CCN(c4ccc(C(=O)N(CC)CC)nn4)CC3)cc(C(F)(F)F)c2)c1` [B4J020-01, 6-[4-[3-[2-(5-Ethoxypyridin-3-yl)ethynyl]-5-(trifluoromethyl)benzoyl]piperazin-1-yl]-N,N-diethylpyridazine-3-carboxamide], in that order: 0.0% and 0.0%.
Regarding `CCOc1cccc(-c2cnn(-c3cc(C(=O)N4CCN(c5ccc(C(=O)N(CC)CC)nn5)CC4)cc(C(F)(F)F)c3)c2)c1` [B4J021-01, 6-[4-[3-[4-(3-Ethoxyphenyl)pyrazol-1-yl]-5-(trifluoromethyl)benzoyl]piperazin-1-yl]-N,N-diethylpyridazine-3-carboxamide], the “ASMS ratio (%) n = 1” value came to 0.0% and the “ASMS ratio (%) n = 2” value amounted to 0.0%.
Take `CCOc1cncc(-c2cnn(-c3cc(C(=O)N4CCN(c5ccc(C(=O)N(CC)CC)nn5)CC4)cc(C(F)(F)F)c3)c2)c1` [B4J022-01, 6-[4-[3-[4-(5-Ethoxypyridin-3-yl)pyrazol-1-yl]-5-(trifluoromethyl)benzoyl]piperazin-1-yl]-N,N-diethylpyridazine-3-carboxamide]: the “ASMS ratio (%) n = 1” value came out at 0.2% and the “ASMS ratio (%) n = 2” value was −0.7%.
As for `CCOc1cccc(-c2csc(C(=O)N3CCN(c4ccc(C(=O)N(CC)CC)cc4)CC3)c2)c1` [B4J023-01, 4-[4-[4-(3-Ethoxyphenyl)thiophene-2-carbonyl]piperazin-1-yl]-N,N-diethylbenzamide], the “ASMS ratio (%) n = 1” value is recorded as 3.5% and the “ASMS ratio (%) n = 2” value is given as −3.4%.
For `CCOc1cncc(-c2csc(C(=O)N3CCN(c4ccc(C(=O)N(CC)CC)cc4)CC3)c2)c1` [B4J024-01, 4-[4-[4-(5-Ethoxypyridin-3-yl)thiophene-2-carbonyl]piperazin-1-yl]-N,N-diethylbenzamide], the “ASMS ratio (%) n = 1” value is −0.6% and the “ASMS ratio (%) n = 2” value is on record as 6.8%.
`CCOc1cccc(-c2ccc(C(=O)N3CCN(c4ccc(C(=O)N(CC)CC)cc4)CC3)cc2C)c1` [B4J025-01, 4-[4-[4-(3-Ethoxyphenyl)-3-methylbenzoyl]piperazin-1-yl]-N,N-diethylbenzamide]: the “ASMS ratio (%) n = 1” value came to 3.6% and the “ASMS ratio (%) n = 2” value is −0.3%.
Regarding `CCOc1cncc(-c2ccc(C(=O)N3CCN(c4ccc(C(=O)N(CC)CC)cc4)CC3)cc2C)c1` [B4J026-01, 4-[4-[4-(5-Ethoxypyridin-3-yl)-3-methylbenzoyl]piperazin-1-yl]-N,N-diethylbenzamide], the “ASMS ratio (%) n = 1” value is −3.6% and the “ASMS ratio (%) n = 2” value is −5.9%.
For `CCOc1cccc(-c2ccc(C(=O)N3CCN(c4ccc(C(=O)N(CC)CC)cc4)CC3)cc2F)c1` [B4J027-01, 4-[4-[4-(3-Ethoxyphenyl)-3-fluorobenzoyl]piperazin-1-yl]-N,N-diethylbenzamide], in that order: −0.5% and 0.2%.
As for `CCOc1cncc(-c2ccc(C(=O)N3CCN(c4ccc(C(=O)N(CC)CC)cc4)CC3)cc2F)c1` [B4J028-01, 4-[4-[4-(5-Ethoxypyridin-3-yl)-3-fluorobenzoyl]piperazin-1-yl]-N,N-diethylbenzamide], the “ASMS ratio (%) n = 1” value is listed as −1.0% and the “ASMS ratio (%) n = 2” value came out at 0.9%.
For `CCOc1cccc(C#Cc2ccccc2C(=O)N2CCN(c3ccc(C(=O)N(CC)CC)cc3)CC2)c1` [B4J029-01, 4-[4-[2-[2-(3-Ethoxyphenyl)ethynyl]benzoyl]piperazin-1-yl]-N,N-diethylbenzamide], the “ASMS ratio (%) n = 1” value is reported as 0.0% and the “ASMS ratio (%) n = 2” value is recorded as 0.0%.
`CCOc1cncc(C#Cc2ccccc2C(=O)N2CCN(c3ccc(C(=O)N(CC)CC)cc3)CC2)c1` [B4J030-01, 4-[4-[2-[2-(5-Ethoxypyridin-3-yl)ethynyl]benzoyl]piperazin-1-yl]-N,N-diethylbenzamide]: the “ASMS ratio (%) n = 1” value turned out to be 0.1% and the “ASMS ratio (%) n = 2” value came to 0.8%.
On the same counts, the results for `CCOc1cccc(C#Cc2cncc(C(=O)N3CCN(c4ccc(C(=O)N(CC)CC)cc4)CC3)c2)c1` [B4J031-01, 4-[4-[5-[2-(3-Ethoxyphenyl)ethynyl]pyridine-3-carbonyl]piperazin-1-yl]-N,N-diethylbenzamide] are 0.1% and 0.8%.
